# Laboratory results reported in article PMC10747034 (Tropical Medicine and Infectious Disease, 2023).
# Tests used:
# [1] = tested on: Toxoplasma gondii tachyzoites of RH strain; experiment: Forty-eight-hour antiproliferative assay; type: cell-based; conditions: 1 µM, 48 h
# Procedure: NDHF cell monolayers were plated in a 24-well tissue plate containing coverslips, and after confluency was reached, cells were infected with a ratio of 5:1 parasite/host cells with freshly egressed RH strain tachyzoites for two hours. Then, cells were washed twice with phosphate-buffered saline, pH 7.4 (PBS), to remove non-invaded parasites and incubated with a complete medium for two hours more. After this time, infected cells were treated for 48 h with different concentrations of selected compounds, based on the IC50 obtained through plaque assay. At the end of the experiment, the cells were washed with PBS, stained with Bouin for 10 min, washed with 70% alcohol, and stained with solutions 2 and 3 of the Fast Panoptic kit for 60 and 10 s, respectively. Two hundred infected cells were quantified per slide using the 100× objective of a Leica DM500 optical microscope, stratifying the number of infected and non-infected cells and the amount of tachyzoite in each infected cell. The proliferation index is the ratio of the product of the total amount of tachyzoites and the percentage of infected cells by the total number of cells.
# [2] = tested on: T. gondii tachyzoites; experiment: Ultrastructural analysis through transmission electron microscopy; type: cell-based, Toxoplasma gondii; conditions: 1 µM, 48 h
# Procedure: T-25 cm^2 flasks for cell culture with confluent monolayers of NHDF were infected with freshly egressed tachyzoite in a ratio of 10:1 parasite per cell for 2 h of interaction. The flasks were washed and fresh RPMI was added for another two hours. After this, the compounds were added and infected cells were treated for 48 h. The sample fixation and processing for microscopy were performed as previously described.
# [3] = tested on: Toxoplasma gondii tachyzoites of RH strain; experiment: Plaque assay (7 days) in NHDF monolayers infected with T. gondii; type: cell-based; conditions: 7 days of treatment, two independent experiments
# Procedure: After NHDF reached confluency, each well was replaced with fresh medium containing one compound at a concentration of 1 µM, and then infected with 1000 newly egressed tachyzoites from RH strain [29]. Screening at 1 μM is recommended by MMV. As a control, infected cells were incubated with complete medium and 0.01% DMSO [29]. The plates were then kept in an incubator at 37 °C in a humid atmosphere with 5% CO2 for seven days. After this time, cultures were fixed with 70% ethanol and stained with crystal violet to observe the plates.
# For that, 12-well plates containing a monolayer of NHDF were infected with 600 tachyzoites of the RH strain of T. gondii and treated with different concentrations for seven days. IC50s of compounds were calculated using GraphPad Prism 8.0 software.
# Data were analyzed using GraphPad Prim 8.0 software. IC50 and CC50 calculations were performed by fitting the values of proliferation/viability in percentage to a non-linear curve followed by dose–response inhibition analysis through log(inhibitor) vs. normalized response.
# [4] = tested on: NHDF cells; experiment: Cytotoxicity assay (MTS, 7 days); type: cell-based, Human; conditions: MTS, ND = 100% viability up to 10 µM, read-out: Cytotoxicity against NHDF (7 Days) CC50
# Procedure: For that, 96-well tissue plates containing NHDF cells were treated with different concentrations of compounds up to 10 µM for seven days. Control cells were incubated with 0.5% DMSO. At the end of the treatment, cell viability was then analyzed through the colorimetric method of MTS (Promega, Madison, WI, USA). […] Data were analyzed using GraphPad Prim 8.0 software. IC50 and CC50 calculations were performed by fitting the values of proliferation/viability in percentage to a non-linear curve followed by dose–response inhibition analysis through log(inhibitor) vs. normalized response.
# [5] = tested on: Madurella mycetomatis; design: method as in PMID 35120131; conditions: read-out: IC50 against Madurella mycetomatis; cited from earlier work
compound,measurement,setting,value
Clc1cc(Cl)c2c(c1)CCc1ccccc1C2n1ccnc1 (centres unmarked) [Eberconazole],Inhibition of parasite proliferation,[1],more than 60%
same,Ultrastructural alterations on tachyzoites (TEM),[2],induced mitochondrial swelling (white arrowhead) and extensive vacuolization
same,IC50,[3],724 ± 12.6 nM
same,CC50,[4],> 10000 nM
same,IC50,[5],720 nM
